# Measurements taken from patent US20240294531A1, “COVALENT HETEROCYCLES AND USES THEREOF” (Kumquat Biosciences Inc., priority 2022, published 2024).
# Target: BTK wildtype protein (Homo sapiens (Human), UniProt Q06187)
# Assay: BTK wildtype HTRF displacement assay
# Assay type: binding
# Details: 1-hour incubation; read-out: BTK (wt) IC50
# Experimental: (§1) The ability of a compound to bind BTK wildtype or BTK C481S proteins was measured using an HTRF displacement assay. The assay measures the ability of a compound to displace a tracer ligand bound to the active site of BTK wildtype or BTK C481 S proteins.
# (§2) Test compounds were prepared as 10 mM stock solutions in DMSO (Fisher cat #BP231-100). Compounds to be assayed were dispensed using an Echo 650 acoustic dispenser (Beckman Coulter) on a 384 well plate in 6 doses applying four-fold dilutions from the highest concentration of 5 μM. N-terminal GST-tagged recombinant full-length BTK wildtype protein and BTK C481 S protein 2-659 were purchased from Carna Biosciences, Inc (Kobe, Japan). BTK wildtype or BTK C481S protein was separately incubated with compound in assay buffer containing kinase tracer 239 (Thermo Fisher) and Mab anti GST-Th (PerkinElmer). After a 1-hour incubation at room temperature, the HTRF signal was measured using SPARK plate reader (Tecan) using the TR fluorescence mode. The HTRF ratio is calculated for DMSO, no protein control and compound samples using the following equation: HTRF ratio=Emmision665/Emmision620×10^4. The signal for the no protein control samples was used to subtract background noise from the DMSO and compound samples. Background subtracted HTRF ratios are used to calculate the percent inhibition, where DMSO controls are set to 0 percent inhibition. The percent inhibition is plotted as a function of compound concentration and IC50 values were calculated from a four-parameter logistic fit in Prism v9.4 (GraphPad), where the bottom and top are constrained to 0 and 100, respectively.
# BTK wildtype protein, sequence (Q06187 2-659): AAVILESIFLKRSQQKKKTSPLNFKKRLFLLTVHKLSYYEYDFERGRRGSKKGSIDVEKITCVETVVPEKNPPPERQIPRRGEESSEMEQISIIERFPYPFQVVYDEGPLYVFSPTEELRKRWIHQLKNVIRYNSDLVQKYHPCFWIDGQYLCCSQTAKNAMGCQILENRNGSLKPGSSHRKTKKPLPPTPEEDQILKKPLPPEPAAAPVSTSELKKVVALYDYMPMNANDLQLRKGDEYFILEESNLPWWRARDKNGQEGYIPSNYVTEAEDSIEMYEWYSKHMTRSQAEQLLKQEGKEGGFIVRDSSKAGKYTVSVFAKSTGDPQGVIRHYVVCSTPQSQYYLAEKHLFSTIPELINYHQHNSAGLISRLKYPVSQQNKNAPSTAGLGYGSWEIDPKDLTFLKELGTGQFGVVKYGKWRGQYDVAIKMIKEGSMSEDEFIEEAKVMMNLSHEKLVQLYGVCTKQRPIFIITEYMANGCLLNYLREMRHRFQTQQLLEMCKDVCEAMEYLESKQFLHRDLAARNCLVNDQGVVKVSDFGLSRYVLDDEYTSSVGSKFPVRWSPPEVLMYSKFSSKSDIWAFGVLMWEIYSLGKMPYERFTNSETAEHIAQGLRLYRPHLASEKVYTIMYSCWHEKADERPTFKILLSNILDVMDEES
row,Structure (SMILES),IC50
1,"COc1ccc(F)cc1C(=O)NCc1ccc(-c2nn(-c3ccccc3CN(C)C(=O)n3cncn3)c3ncnc(N)c23)cc1 [Compound 143, N-(2-(4-amino-3-(4-((5-fluoro-2-methoxybenzamido)methyl)phenyl)-1H-pyrazolo[3,4-d]pyrimidin-1-yl)benzyl)-N-methyl-1H-1,2,4-triazole-1-carboxamide]",> 1 µM
2,"COc1ccc(F)cc1C(=O)NCc1ccc(-c2nn(CC3CCCCC3N(C)C(=O)n3cncn3)c(N)c2C(N)=O)cc1 (stereo not shown) [Compound 229, N-(2-((5-amino-4-carbamoyl-3-(4-((5-fluoro-2-methoxybenzamido)methyl)phenyl)-1H-pyrazol-1-yl)methyl)cyclohexyl)-N-methyl-1H-1,2,4-triazole-1-carboxamide]",≤ 1 µM
3,"COc1ccc(F)cc1C(=O)NCc1ccc(-c2nn(CC3CN(C(=O)n4cncn4)C3)c(N)c2C(N)=O)cc1 [Compound 270, 1-((1-(1H-1,2,4-triazole-1-carbonyl)azetidin-3-yl)methyl)-5-amino-3-(4-((5-fluoro-2-methoxybenzamido)methyl)phenyl)-1H-pyrazole-4-carboxamide]",≤ 1 µM
4,"Cc1[nH]c2c(C(N)=O)cc(F)c(N3CCCC4(CCN4C(=O)n4cncn4)C3)c2c1C (stereo not shown) [Compound 171, 4-(1-(1H-1,2,4-triazole-1-carbonyl)-1,6-diazaspiro[3.5]nonan-6-yl)-5-fluoro-2,3-dimethyl-1H-indole-7-carboxamide]",≤ 1 µM
5,"COc1ccc(F)cc1C(=O)NCc1ccc(-c2nn(C3CCCC4(CCN4C(=O)n4cncn4)C3)c3ncnc(N)c23)cc1 (stereo not shown) [Compound 236, N-(4-(1-(1-(1H-1,2,4-triazole-1-carbonyl)-1-azaspiro[3.5]nonan-6-yl)-4-amino-1H-pyrazolo[3,4-d]pyrimidin-3-yl)benzyl)-5-fluoro-2-methoxybenzamide]",≤ 1 µM
6,"COc1ccc(F)cc1C(=O)NCc1ccc(-c2nn(C3CCC(N(C)C(=O)n4cncn4)C3)c(N)c2C(N)=O)cc1 (stereo not shown) [Compound 201, N-(3-(5-amino-4-carbamoyl-3-(4-((5-fluoro-2-methoxybenzamido)methyl)phenyl)-1H-pyrazol-1-yl)cyclopentyl)-N-methyl-1H-1,2,4-triazole-1-carboxamide]",≤ 1 µM
7,"COc1ccc(F)cc1C(=O)NCc1ccc(-c2nn(C3CCCC(N(C)C(=O)n4cncn4)C3)c3ncnc(N)c23)cc1 (stereo not shown) [Compound 290, N-(3-(4-amino-3-(4-((5-fluoro-2-methoxybenzamido)methyl)phenyl)-1H-pyrazolo[3,4-d]pyrimidin-1-yl)cyclohexyl)-N-methyl-1H-1,2,4-triazole-1-carboxamide]",≤ 1 µM
8,"COc1ccc(F)cc1C(=O)NCc1ccc(-c2nn(C3CCCCC(N(C)C(=O)n4cncn4)C3)c3ncnc(N)c23)cc1 (stereo not shown) [Compound 278, N-(3-(4-amino-3-(4-((5-fluoro-2-methoxybenzamido)methyl)phenyl)-1H-pyrazolo[3,4-d]pyrimidin-1-yl)cycloheptyl)-N-methyl-1H-1,2,4-triazole-1-carboxamide]",≤ 1 µM
9,"CN(C(=O)n1cncn1)C1CCCCC(n2nc(-c3ccc(Oc4ccccc4)cc3)c3c(N)ncnc32)C1 (stereo not shown) [Compound 314, N-(3-(4-amino-3-(4-phenoxyphenyl)-1H-pyrazolo[3,4-d]pyrimidin-1-yl)cycloheptyl)-N-methyl-1H-1,2,4-triazole-1-carboxamide]",≤ 1 µM

# Continued, values first:
row,IC50,Structure (SMILES)
1,≤ 1 µM,"CN(C(=O)n1cncn1)[C@@H]1CCC[C@H](n2nc(-c3ccc(Oc4ccccc4)cc3)c(C(N)=O)c2N)C1 [Compound 297, N-((1R,3S)-3-(5-amino-4-carbamoyl-3-(4-phenoxyphenyl)-1H-pyrazol-1-yl)cyclohexyl)-N-methyl-1H-1,2,4-triazole-1-carboxamide]"
2,≤ 1 µM,"CN(C(=O)n1cncn1)C1CCC(n2nc(-c3ccc(Oc4ccccc4)cc3)c(C(N)=O)c2N)C1 (stereo not shown) [Compound 295, N-(3-(5-amino-4-carbamoyl-3-(4-phenoxyphenyl)-1H-pyrazol-1-yl)cyclopentyl)-N-methyl-1H-1,2,4-triazole-1-carboxamide]"
3,≤ 1 µM,"CN(C(=O)n1cncn1)C1CCC(n2nc(-c3ccc(Oc4ccccc4)cc3)c3c(N)ncnc32)C1 (stereo not shown) [Compound 216, N-(3-(4-amino-3-(4-phenoxyphenyl)-1H-pyrazolo[3,4-d]pyrimidin-1-yl)cyclopentyl)-N-methyl-1H-1,2,4-triazole-1-carboxamide]"
4,≤ 1 µM,"CN(C(=O)n1cncn1)C1CCCC(n2nc(-c3ccc(Oc4ccccc4)cc3)c3c(N)ncnc32)C1 (stereo not shown) [Compound 233, N-(3-(4-amino-3-(4-phenoxyphenyl)-1H-pyrazolo[3,4-d]pyrimidin-1-yl)cyclohexyl)-N-methyl-1H-1,2,4-triazole-1-carboxamide]"
5,> 1 µM,"NC(=O)c1c(-c2ccc(Oc3ccccc3)cc2)nn2c1NCCC2C1CCCN(C(=O)n2cncn2)C1 (stereo not shown) [Compound 283, 7-(1-(1H-1,2,4-triazole-1-carbonyl)piperidin-3-yl)-2-(4-phenoxyphenyl)-4,5,6,7-tetrahydropyrazolo[1,5-a] pyrimidine-3-carboxamide]"

# Target: BTK C481S protein (Homo sapiens (Human), UniProt Q06187, C481S)
# Assay: BTK C481S HTRF displacement assay
# Assay type: binding
# Details: 1-hour incubation
# Experimental: as §1, §2
# The same assay was used to measure the activity of selected compounds of the formula TBM-L-hydrogen. Using the IC50 value observed for a given reversible test compound, the KI of the test compound can be assessed using the formula KI=IC50/(1+([Tracer]/Kd)), wherein the tracer concentration in the assay [Tracer] is 50 nM and the tracer Kd for BTK C481S is 54 nM.
# BTK C481S protein, sequence (Q06187 2-659 C481S): as the sequence (Q06187 2-659) above, with C480S counted along it
row,Structure (SMILES),IC50
1,"COc1ccc(F)cc1C(=O)NCc1ccc(-c2nn(-c3ccccc3CN(C)C(=O)n3cncn3)c3ncnc(N)c23)cc1 [Compound 143, N-(2-(4-amino-3-(4-((5-fluoro-2-methoxybenzamido)methyl)phenyl)-1H-pyrazolo[3,4-d]pyrimidin-1-yl)benzyl)-N-methyl-1H-1,2,4-triazole-1-carboxamide]",> 1 µM
2,"COc1ccc(F)cc1C(=O)NCc1ccc(-c2nn(CC3CCCCC3N(C)C(=O)n3cncn3)c(N)c2C(N)=O)cc1 (stereo not shown) [Compound 229, N-(2-((5-amino-4-carbamoyl-3-(4-((5-fluoro-2-methoxybenzamido)methyl)phenyl)-1H-pyrazol-1-yl)methyl)cyclohexyl)-N-methyl-1H-1,2,4-triazole-1-carboxamide]",≤ 1 µM
3,"COc1ccc(F)cc1C(=O)NCc1ccc(-c2nn(CC3CN(C(=O)n4cncn4)C3)c(N)c2C(N)=O)cc1 [Compound 270, 1-((1-(1H-1,2,4-triazole-1-carbonyl)azetidin-3-yl)methyl)-5-amino-3-(4-((5-fluoro-2-methoxybenzamido)methyl)phenyl)-1H-pyrazole-4-carboxamide]",≤ 1 µM
4,"Cc1[nH]c2c(C(N)=O)cc(F)c(N3CCCC4(CCN4C(=O)n4cncn4)C3)c2c1C (stereo not shown) [Compound 171, 4-(1-(1H-1,2,4-triazole-1-carbonyl)-1,6-diazaspiro[3.5]nonan-6-yl)-5-fluoro-2,3-dimethyl-1H-indole-7-carboxamide]",≤ 1 µM
5,"COc1ccc(F)cc1C(=O)NCc1ccc(-c2nn(C(C)C(C)CN(C)C(=O)n3cncn3)c3ncnc(N)c23)cc1 (stereo not shown) [Compound 189, N-(3-(4-amino-3-(4-((5-fluoro-2-methoxybenzamido)methyl)phenyl)-1H-pyrazolo[3,4-d]pyrimidin-1-yl)-2-methylbutyl)-N-methyl-1H-1,2,4-triazole-1-carboxamide]",≤ 1 µM
6,"COc1ccc(F)cc1C(=O)NCc1ccc(-c2nn(C(C)CC3CCCN3C(=O)n3cncn3)c3ncnc(N)c23)cc1 (stereo not shown) [Compound 166, N-(4-(1-(1-(1-(1H-1,2,4-triazole-1-carbonyl)pyrrolidin-2-yl)propan-2-yl)-4-amino-1H-pyrazolo[3,4-d]pyrimidin-3-yl)benzyl)-5-fluoro-2-methoxybenzamide]",≤ 1 µM
7,"COc1ccc(F)cc1C(=O)NCc1ccc(-c2nn(C3CCCC(N(C)C(=O)n4cncn4)C3)c3ncnc(N)c23)cc1 (stereo not shown) [Compound 177, N-(3-(4-amino-3-(4-((5-fluoro-2-methoxybenzamido)methyl)phenyl)-1H-pyrazolo[3,4-d]pyrimidin-1-yl)cyclohexyl)-N-methyl-1H-1,2,4-triazole-1-carboxamide]",≤ 1 µM
8,"COc1ccc(F)cc1C(=O)NCc1ccc(-c2nn(C3CCCCC(N(C)C(=O)n4cncn4)C3)c3ncnc(N)c23)cc1 (stereo not shown) [Compound 147, N-(3-(4-amino-3-(4-((5-fluoro-2-methoxybenzamido)methyl)phenyl)-1H-pyrazolo[3,4-d]pyrimidin-1-yl)cycloheptyl)-N-methyl-1H-1,2,4-triazole-1-carboxamide]",≤ 1 µM

# The next lines start with the values.
row,IC50,Structure (SMILES)
1,≤ 1 µM,"CN(C(=O)n1cncn1)[C@@H]1CCC[C@H](n2nc(-c3ccc(Oc4ccccc4)cc3)c(C(N)=O)c2N)C1 [Compound 297, N-((1R,3S)-3-(5-amino-4-carbamoyl-3-(4-phenoxyphenyl)-1H-pyrazol-1-yl)cyclohexyl)-N-methyl-1H-1,2,4-triazole-1-carboxamide]"
2,≤ 1 µM,"CN(C(=O)n1cncn1)C1CCCC(n2nc(-c3ccc(Oc4ccccc4)cc3)c3c(N)ncnc32)C1 (stereo not shown) [Compound 160, N-(3-(4-amino-3-(4-phenoxyphenyl)-1H-pyrazolo[3,4-d]pyrimidin-1-yl)cyclohexyl)-N-methyl-1H-1,2,4-triazole-1-carboxamide]"
3,≤ 1 µM,"CN(C(=O)n1cncn1)C1CCCCC(n2nc(-c3ccc(Oc4ccccc4)cc3)c3c(N)ncnc32)C1 (stereo not shown) [Compound 118, N-(3-(4-amino-3-(4-phenoxyphenyl)-1H-pyrazolo[3,4-d]pyrimidin-1-yl)cycloheptyl)-N-methyl-1H-1,2,4-triazole-1-carboxamide]"
4,> 1 µM,"NC(=O)c1c(-c2ccc(Oc3ccccc3)cc2)nn2c1NCCC2C1CCN1C(=O)n1cncn1 (stereo not shown) [Compound 180, 7-(1-(1H-1,2,4-triazole-1-carbonyl)azetidin-2-yl)-2-(4-phenoxy-phenyl)-4,5,6,7-tetrahydropyrazolo [1,5-a]pyrimidine-3-carboxamide]"
5,≤ 1 µM,"CN(C(=O)n1cncn1)C1CCC(n2nc(-c3ccc(Oc4ccccc4)cc3)c3c(N)ncnc32)C1 (stereo not shown) [Compound 116, N-(3-(4-amino-3-(4-phenoxyphenyl)-1H-pyrazolo[3,4-d]pyrimidin-1-yl)cyclopentyl)-N-methyl-1H-1,2,4-triazole-1-carboxamide]"
6,≤ 1 µM,"CN(C(=O)n1cncn1)C1CCC(n2nc(-c3ccc(Oc4ccccc4)cc3)c(C(N)=O)c2N)C1 (stereo not shown) [Compound 302, N-(3-(5-amino-4-carbamoyl-3-(4-phenoxyphenyl)-1H-pyrazol-1-yl)cyclopentyl)-N-methyl-1H-1,2,4-triazole-1-carboxamide]"

# Same assay, conditions: TBM-L-hydrogen compounds; KI=IC50/(1+([Tracer]/Kd)), [Tracer] 50 nM, Kd 54 nM
row,Ki,Structure (SMILES)
1,< 0.66 µM,COc1ccc(F)cc1C(=O)NCc1ccc(-c2nn(CCNC3CC3)c3ncnc(N)c23)cc1 [reference compound]
2,< 0.6 µM,COc1ccc(C)cc1C(=O)NCc1ccc(-c2nn(CC3CCCCN3)c3ncnc(N)c23)cc1 (stereo not shown) [reference compound]
3,< 1 µM,CCNCC1CCNc2c(C(N)=O)c(-c3ccc(Oc4ccccc4)cc3)nn21 (stereo not shown) [reference compound]
